Drawing on patent publication US20090215774A1, “USES OF INDANE COMPOUNDS” (H. LUNDBECK A/S, priority 2008, published 2009), this text covers average weight loss and IC50 for six molecules.

The conditions of assay [1]: 24 weeks' treatment, patients, cited from earlier work.
Assay [2] addresses T1, 5-HTT Serotonin Transporter (Rattus norvegicus, UniProt P31652).
T1 construct: Whole brains from male Wistar rats (125-225 g), excluding cerebellum, are homogenized; from tissue; host or cells: rat whole brain excluding cerebellum, synaptosomal (P2) pellet
Briefly: Measurements of [3H]-5-HT uptake into rat cortical synaptosomes. Format: biochemical. As to the method: Measurements of [^3H]-5-HT Uptake Into Rat Cortical Synaptosomes
The homogenate is centrifuged at 1000×g for 10 rain at 4° C. The pellet is discarded and the supernatant is centrifuged at 40.000×g for 20 min. The final pellet is homogenized in assay buffer (0.5 mg original tissue/well). Test compounds (or buffer) and 10 nM [^3H]-5-HT are added to 96 well plates. […] The incubation is started by adding tissue to a final assay volume of 0.2 mL. After 15 min incubation with radioligand at 37° C., samples are filtered directly on Unifilter GF/C glass fiber filters (soaked for 30 min in 0.1% polyethylenimine) under vacuum and immediately washed with 1×0.2 ml assay buffer. Non-specific uptake is determined using citalopram (10 μM final concentration). Citalopram is included as reference in all experiments as dose-response curve.

In assay [3] the target is NAT Noradrenergic Transporter (Rattus norvegicus, UniProt Q9WTR4). Description: Measurements of [3H]noradrenaline uptake into rat cortical synaptosomes. Format: biochemical. As to the method:
Measurements of [^3H]Noradrenaline Uptake Into Rat Cortical Synaptosomes
The homogenate is centrifuged at 1000×g for 10 min at 4° C. The pellet is discarded and the supernatant is centrifuged at 40.000×g for 20 min. […] Pellet is suspended in 140 volumes of assaybuffer. Tissue is mixed with test compounds and after 10 min pre-incubation, 10 nM [^3H]-noradrenaline is added to a final volume of 0.2 ml and the mixture is incubated for 15 min at 37° C. After 15 min incubation, samples are filtered directly on Unifilter GF/C glass fiber filters (soaked for 30 min in 0.1% polyethylenimine) under vacuum and immediately washed with 1×0.2 mL assay buffer. Non-specific uptake is determined using talsupram (10 μM final concentration). Duloxetine is included as reference in all experiments as dose-response curve.

The next assay deals with T2, DAT Dopamine Transporter (Rattus norvegicus, UniProt P23977).
T2 construct: male wistar rats (125-250 g) are sacrificed by decapitation and striatum quickly dissected out; from tissue; host or cells: rat striatum, P2 fraction
T2 sequence (P23977 whole entry): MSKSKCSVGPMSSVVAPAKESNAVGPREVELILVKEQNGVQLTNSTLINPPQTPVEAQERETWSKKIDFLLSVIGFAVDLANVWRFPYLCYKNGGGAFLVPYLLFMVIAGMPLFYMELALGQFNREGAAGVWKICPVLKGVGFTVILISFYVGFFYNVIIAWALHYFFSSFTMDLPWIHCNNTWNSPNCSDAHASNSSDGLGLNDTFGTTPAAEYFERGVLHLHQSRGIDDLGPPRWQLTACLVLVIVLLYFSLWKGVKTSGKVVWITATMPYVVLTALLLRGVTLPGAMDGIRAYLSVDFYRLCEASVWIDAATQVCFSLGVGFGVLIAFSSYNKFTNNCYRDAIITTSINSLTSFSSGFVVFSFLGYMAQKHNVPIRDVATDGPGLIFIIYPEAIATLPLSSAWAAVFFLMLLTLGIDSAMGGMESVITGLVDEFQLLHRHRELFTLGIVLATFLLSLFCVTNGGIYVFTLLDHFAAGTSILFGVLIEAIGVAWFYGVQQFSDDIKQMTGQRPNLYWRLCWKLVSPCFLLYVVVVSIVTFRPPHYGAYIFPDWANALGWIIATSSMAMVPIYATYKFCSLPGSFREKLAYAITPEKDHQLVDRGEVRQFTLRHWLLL
Briefly: Measurements of [3H]dopamine uptake into rat cortical synaptosomes. Format: biochemical. As to the method: Measurements of [^3H]Dopamine Uptake Into Rat Cortical Synaptosomes
The tissue is gently homogenised (glass teflon homogeniser) and the P2 fraction is obtained by centrifugation (1000 g, 10 minutes and 40000 g, 20 minutes, 4° C.) and suspended in 560 volumes of a modified Krebs-Ringer-phosphate buffer, pH 7.4.
Tissue 0.25 mg/well (140 μl) (original tissue) is mixed with test suspension. […] Final volume is 0.2 mL. The incubation is terminated by filtering the samples under vacuum through Whatman GF/C filters with a wash of 1×0.2 ml buffer. The filters are dried and appropriate scintillation fluid (Optiphase Supermix) is added. After storage for 2 hours in the dark the content of radioactivity is determined by liquid scintillation counting. Uptake is obtained by subtracting the non-specific binding and passive transport measured in the presence of 100 μM of benztropin. For determination of the inhibition of uptake ten concentrations of drugs covering 6 decades are used.
^3H-DA=3,4-(ring-2,5,6-^3H)dopamine hydrochloride from New England Nuclear, specific activity 30-50 Ci/mmol.

Like-named read-outs stand apart in the source and are kept apart here.

NAT Noradrenergic Transporter, sequence (Q9WTR4 6-550 limits assumed): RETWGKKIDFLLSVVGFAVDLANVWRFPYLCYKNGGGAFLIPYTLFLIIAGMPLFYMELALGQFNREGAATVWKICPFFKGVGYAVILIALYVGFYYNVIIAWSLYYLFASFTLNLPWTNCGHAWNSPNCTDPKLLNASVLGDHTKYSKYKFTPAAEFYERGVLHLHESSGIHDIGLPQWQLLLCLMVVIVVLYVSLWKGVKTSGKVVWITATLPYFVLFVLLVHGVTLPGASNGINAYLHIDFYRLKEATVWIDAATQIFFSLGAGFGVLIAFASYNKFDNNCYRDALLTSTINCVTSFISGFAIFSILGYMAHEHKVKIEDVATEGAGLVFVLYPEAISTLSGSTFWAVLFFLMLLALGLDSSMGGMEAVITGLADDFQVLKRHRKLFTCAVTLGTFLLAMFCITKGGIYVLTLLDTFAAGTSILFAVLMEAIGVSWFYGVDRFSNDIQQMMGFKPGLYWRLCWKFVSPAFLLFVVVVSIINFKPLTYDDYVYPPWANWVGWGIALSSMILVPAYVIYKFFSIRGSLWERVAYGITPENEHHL
T1 sequence (P31652 whole entry): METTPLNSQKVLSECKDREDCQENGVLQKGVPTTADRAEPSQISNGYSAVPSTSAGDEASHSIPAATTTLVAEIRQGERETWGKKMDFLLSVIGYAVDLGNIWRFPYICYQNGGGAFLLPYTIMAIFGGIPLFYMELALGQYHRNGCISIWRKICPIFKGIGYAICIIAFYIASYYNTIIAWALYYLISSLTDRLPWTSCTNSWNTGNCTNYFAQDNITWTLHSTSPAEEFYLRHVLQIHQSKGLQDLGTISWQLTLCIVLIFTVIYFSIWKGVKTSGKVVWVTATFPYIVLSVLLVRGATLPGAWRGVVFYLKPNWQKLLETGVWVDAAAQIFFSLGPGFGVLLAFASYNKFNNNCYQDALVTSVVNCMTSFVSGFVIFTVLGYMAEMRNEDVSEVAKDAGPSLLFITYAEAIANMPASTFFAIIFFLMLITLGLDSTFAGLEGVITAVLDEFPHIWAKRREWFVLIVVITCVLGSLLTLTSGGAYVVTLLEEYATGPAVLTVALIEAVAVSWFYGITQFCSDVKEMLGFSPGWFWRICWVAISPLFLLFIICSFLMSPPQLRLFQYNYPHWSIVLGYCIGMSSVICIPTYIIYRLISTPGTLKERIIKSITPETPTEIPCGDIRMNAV

In the case of `CCOC[C@@H]1[C@@H](c2ccc(Cl)c(Cl)c2)C[C@@H]2CC[C@H]1N2C` [Tesofensine], the average weight loss is recorded as 6.5% in assay [1] (0.25 mg), 11.2% in assay [1] (0.5 mg) and 12.6% in assay [1] (1 mg).
With `CN[C@@H]1C[C@@H](c2c[nH]c3ccccc23)c2ccccc21` [Formula IX], the half-inhibitory concentration (IC50) (in assay [2]; in assay [3]; on DAT Dopamine Transporter) was 0.1 to 200 nM each time.
For the molecule `CN[C@@H]1C[C@@H](c2c[nH]c3ccc(Cl)cc23)c2ccccc21` [Formula VIII], the IC50 (in assay [2]; in assay [3]; against DAT Dopamine Transporter) was 0.1 to 200 nM each time.
As to `CN[C@H]1C[C@@H](c2c[nH]c3c(F)cccc23)c2ccccc21` [Formula VII], the IC50 (in assay [2]; in assay [3]; against DAT Dopamine Transporter) was 0.1 to 200 nM each time.
Take `CN[C@@H]1C[C@H](c2c[nH]c3c(F)cccc23)c2ccccc21` [Formula VI]: the IC50 (in assay [2]; in assay [3]; against DAT Dopamine Transporter) was 0.1 to 200 nM throughout.
For the molecule `CN[C@@H]1C[C@@H](c2c[nH]c3cc(OC)ccc23)c2ccccc21` [Formula X], the IC50 (in assay [2]; in assay [3]; against DAT Dopamine Transporter) was 0.1 to 200 nM throughout.
